Key:
[1] = system: fibroblasts (PHF) co-cultivated with tumor cell lymphoblastic leukemia B (SDI); assay: Marker expression (IHC) in PHF co-cultured with SDI tumor cells; type: cell-based, human; conditions: PHF co-cultivated with SDI + SP
Description: (§1) All cultures were maintained 48 hours, following which the same cells were included in paraffin blocks for subsequent analysis of the expression of different markers by immunohistochemistry (see Example 1). […] All experiments were carried out sixfold. Analyzed markers in fibroblast cells (stromal cells) were: TGF-α, TGF-β1, TGF-β2, TGF-β3, SPARC, MMP-3, MMP-7, MMP-9, MMP-11, MMP-13 and MMP-14.

[2] = system: fibroblasts (PHF) co-cultured with tumor cells of human endometrial carcinoma (AN3-CA); assay: Marker expression (IHC) in PHF co-cultured with AN3-CA tumor cells; type: cell-based; conditions: co-culture with AN3-CA; SP 1 μM; 48 h;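 further: cultured in fresh healthy-donor blood plasma with added antibiotic-antimycotic, run in six replicates, values give percent of fibroblasts positive for each marker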
Description: as §1

[3] = system: fibroblast cells in co-culture with cells isolated from primary human tumors; assay: Marker expression (IHC) in fibroblasts co-cultured with primary human tumor cells (colon, pancreatic, lung carcinoma, glioma, multiple myeloma); type: cell-based
Description: To check that the interaction of the human primary tumor cells with stromal cells, [human fibroblasts,] stimulates the secretion of substances of importance for survival and tumor progression, co-cultures were performed using stromal cells with human fibroblast-tumor cells obtained directly from primary human tumors.
On this occasion, in order to identify, using immunohistochemical techniques, the secretion of substances of importance for the survival and progression of tumors, the following antibodies were used: TGF-α (SAB4502953), TGF-β1 (SAB4502954), TGF-β2 (SAB4502956), TGF-β3 (SAB4502957), SPARC (HPA002989), MMP-3 (HPA007875), MMP-7 (SAB4501894), MMP-9 (SAB4501896), MMP-11 (SAB4501898) MMP-13 (SAB4501900) and MMP-14 (SAB4501901) using specific antibodies against them. All antibodies used were rabbit polyclonal antibodies obtained from Sigma-Aldrich and were used at a concentration of 1/1000 to achieve these immunohistochemical studies. All experiments were carried out sixfold.

[4] = system: fibroblasts (PHF) co-cultured with human glioma tumor cells (GAMG); assay: Marker expression (IHC) in PHF co-cultured with GAMG tumor cells; type: cell-based; conditions: co-culture with GAMG; SP 1 μM; 48 h;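 further: percentage of PHF fibroblasts positive for each marker, cultured in fresh plasma from a healthy donor, six replicates, with fibroblasts cultured alone as reference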
Description: as §1

[5] = system: leukocyte cells (mono and polymorphonuclear) in co-culture with cells isolated from primary human tumors; assay: Marker expression (IHC) in leukocytes co-cultured with primary human tumor cells (colon, pancreatic, lung carcinoma, glioma, melanoma); type: cell-based; conditions: SP 1 μM;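 further: tumor cells and leukocytes came from the same patients, co-culture contents were paraffin-embedded for immunohistochemistry with antibodies to TGF-β2 or NF-kB, leukocytes cultured alone served as control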
Description: To check that the interaction of the human primary tumor cells with cells of the immune/inflammatory (mono and polymorphonuclear leukocytes) cells, stimulates the secretion of substances of importance for survival and tumor progression, cultures were carried out using sets of immune cells/inflammatory (mono and polymorphonuclear leukocytes) with tumor cells obtained directly from primary human tumors of the same patients.
The same method described in Example 7 and 9 was used to obtain tumor cells from primary human tumors. Similarly cultured immune cells/inflammatory (mono and polymorphonuclear leukocytes) were used as control and secondly, cultured tumor cells isolated from patients in the presence of immune cells/inflammatory (mono and polymorphonuclear leukocytes).
Then, paraffin blocks were prepared with the contents of each of the groups mentioned previously for expression studies using immunohistochemistry. On this occasion, in order to identify the secretion of substances with importance for the survival and progression of tumor the following markers were analyzed: TGF-β2 (SAB4502956) and NF-kB (SAB4501992) using specific antibodies against them. All antibodies used were rabbit polyclonal antibodies obtained from Sigma Aldrich and were used at a concentration of 1/1000. Immunohistochemical techniques were performed and evaluated as described in previous examples.

[6] = Primary tumor cells (colon carcinoma) co-cultured + fibroblast + SP (1 μM)
[7] = co-culture with cells isolated from glioma, SP 1 μM
[8] = co-culture with cells isolated from lung cancer, SP 1 μM
[9] = co-culture with cells isolated from multiple myeloma, SP 1 μM
[10] = co-culture with cells isolated from pancreatic carcinoma, SP 1 μM
[11] = co-culture with cells isolated from colon carcinoma
[12] = co-culture with cells isolated from glioma
[13] = co-culture with cells isolated from lung carcinoma
[14] = co-culture with cells isolated from melanoma
[15] = co-culture with cells isolated from pancreatic carcinoma

## CSCC[C@H](NC(=O)[C@H](CC(C)C)NC(=O)CNC(=O)[C@H](Cc1ccccc1)NC(=O)[C@H](Cc1ccccc1)NC(=O)[C@H](CCC(N)=O)NC(=O)[C@H](CCC(N)=O)NC(=O)[C@@H]1CCCN1C(=O)[C@H](CCCCN)NC(=O)[C@@H]1CCCN1C(=O)[C@@H](N)CCCNC(=N)N)C(N)=O [SP]
[1]
  cells expressing MMP-3: 53.4 ± 5.7%
  cells expressing MMP-7: 59.1 ± 4.8%
  cells expressing MMP-9: 59.3 ± 3.4%
  cells expressing MMP-11: 47.4 ± 4.8%
  cells expressing MMP-13: 49.5 ± 6.5%
  cells expressing MMP-14: 53.9 ± 5.5%
  cells expressing SPARC: 56 ± 6.2%
  cells expressing TGF-α: 41.4 ± 3.1%
  cells expressing TGF-β1: 42.5 ± 4.2%
  cells expressing TGF-β2: 50.5 ± 1.1%
  cells expressing TGF-β3: 51.4 ± 5.5%
[2]
  PHF cells expressing MMP-3: 44.2 ± 2.7%
  PHF cells expressing MMP-7: 54.4 ± 2.1%
  PHF cells expressing MMP-9: 54.3 ± 1.6%
  PHF cells expressing MMP-11: 29.4 ± 1.8%
  PHF cells expressing MMP-13: 49 ± 3.4%
  PHF cells expressing MMP-14: 45.2 ± 3.5%
  PHF cells expressing SPARC: 49 ± 1.5%
  PHF cells expressing TGF-α: 42.4 ± 2%
  PHF cells expressing TGF-β1: 33.3 ± 3.1%
  PHF cells expressing TGF-β2: 43.5 ± 1.1%
  PHF cells expressing TGF-β3: 44 ± 1.56%
[3]; [6]
  Percentage of fibroblast cells which expressed MMP-3: 47.4 ± 2.4%
  Percentage of fibroblast cells which expressed MMP-7: 55.1 ± 3.6%
  Percentage of fibroblast cells which expressed MMP-9: 54.7 ± 4.5%
  Percentage of fibroblast cells which expressed MMP-11: 28.4 ± 4.4%
  Percentage of fibroblast cells which expressed MMP-13: 43.4 ± 4.6%
  Percentage of fibroblast cells which expressed MMP-14: 48.6 ± 5.6%
  Percentage of fibroblast cells which expressed SPARC: 47 ± 2.7%
  Percentage of fibroblast cells which expressed TGFα: 45.5 ± 4.2%
  Percentage of fibroblast cells which expressed TGFβ1: 35.3 ± 2.3%
  Percentage of fibroblast cells which expressed TGFβ2: 44.5 ± 3.6%
  Percentage of fibroblast cells which expressed TGFβ3: 45 ± 3.9%
[3]; [7]
  Percentage of fibroblast cells which expressed MMP-3: 48.4 ± 5.1%
  Percentage of fibroblast cells which expressed MMP-7: 59.4 ± 5.7%
  Percentage of fibroblast cells which expressed MMP-9: 55.5 ± 4.5%
  Percentage of fibroblast cells which expressed MMP-11: 28.9 ± 4.7%
  Percentage of fibroblast cells which expressed MMP-13: 48.0 ± 5.6%
  Percentage of fibroblast cells which expressed MMP-14: 46.3 ± 3.6%
  Percentage of fibroblast cells which expressed SPARC: 56.2 ± 4.2%
  Percentage of fibroblast cells which expressed TGFα: 38.4 ± 2.3%
  Percentage of fibroblast cells which expressed TGFβ1: 35.4 ± 2.6%
  Percentage of fibroblast cells which expressed TGFβ2: 42.4 ± 4.2%
  Percentage of fibroblast cells which expressed TGFβ3: 52.1 ± 3.7%
[3]; [8]
  Percentage of fibroblast cells which expressed MMP-3: 51.5 ± 5.8%
  Percentage of fibroblast cells which expressed MMP-7: 54.4 ± 6.3%
  Percentage of fibroblast cells which expressed MMP-9: 56.5 ± 4.6%
  Percentage of fibroblast cells which expressed MMP-11: 38.6 ± 3.4%
  Percentage of fibroblast cells which expressed MMP-13: 46.3 ± 3.4%
  Percentage of fibroblast cells which expressed MMP-14: 47.6 ± 5.6%
  Percentage of fibroblast cells which expressed SPARC: 47.3 ± 4.2%
  Percentage of fibroblast cells which expressed TGFα: 37.5 ± 2.3%
  Percentage of fibroblast cells which expressed TGFβ1: 37.3 ± 3.3%
  Percentage of fibroblast cells which expressed TGFβ2: 52.3 ± 2.8%
  Percentage of fibroblast cells which expressed TGFβ3: 46.1 ± 4.3%
[3]; [9]
  Percentage of fibroblast cells which expressed MMP-3: 46.6 ± 5.7%
  Percentage of fibroblast cells which expressed MMP-7: 57.6 ± 4.1%
  Percentage of fibroblast cells which expressed MMP-9: 57.3 ± 4.5%
  Percentage of fibroblast cells which expressed MMP-11: 29.4 ± 3.1%
  Percentage of fibroblast cells which expressed MMP-13: 47.5 ± 4.3%
  Percentage of fibroblast cells which expressed MMP-14: 47.2 ± 3.4%
  Percentage of fibroblast cells which expressed SPARC: 46.3 ± 3.2%
  Percentage of fibroblast cells which expressed TGFα: 49.3 ± 3.3%
  Percentage of fibroblast cells which expressed TGFβ1: 45.6 ± 4.2%
  Percentage of fibroblast cells which expressed TGFβ2: 52.3 ± 3.2%
  Percentage of fibroblast cells which expressed TGFβ3: 47.4 ± 3.5%
[3]; [10]
  Percentage of fibroblast cells which expressed MMP-3: 47.5 ± 6.1%
  Percentage of fibroblast cells which expressed MMP-7: 56.6 ± 5.1%
  Percentage of fibroblast cells which expressed MMP-9: 54.1 ± 5.2%
  Percentage of fibroblast cells which expressed MMP-11: 27.1 ± 6.2%
  Percentage of fibroblast cells which expressed MMP-13: 57.2 ± 4.7%
  Percentage of fibroblast cells which expressed MMP-14: 46.2 ± 5.1%
  Percentage of fibroblast cells which expressed SPARC: 43.7 ± 4.5%
  Percentage of fibroblast cells which expressed TGFα: 44.2 ± 4.5%
  Percentage of fibroblast cells which expressed TGFβ2: 43.6 ± 7.4%
  Percentage of fibroblast cells which expressed TGFβ3: 45.4 ± 5.6%
[4]
  PHF cells expressing MMP-3: 43.4 ± 2.8%
  PHF cells expressing MMP-7: 57.1 ± 3.8%
  PHF cells expressing MMP-9: 52.3 ± 2.4%
  PHF cells expressing MMP-11: 27.5 ± 3.8%
  PHF cells expressing MMP-13: 45.4 ± 3.6%
  PHF cells expressing MMP-14: 49.3 ± 3.5%
  PHF cells expressing SPARC: 51.2 ± 3.3%
  PHF cells expressing TGF-α: 42.5 ± 3.1%
  PHF cells expressing TGF-β1: 33.6 ± 3.1%
  PHF cells expressing TGF-β2: 40.7 ± 2.1%
  PHF cells expressing TGF-β3: 51 ± 1.6%
[5]; [11]
  Percentage of mononuclear leukocytes cells which expressed NF-kB: 47.5 ± 4.6%
  Percentage of mononuclear leukocytes cells which expressed TGF-β: 36.5 ± 3.5%
  Percentage of polymorphonuclear leukocytes cells which expressed NF-kB: 36.6 ± 4.7%
  Percentage of polymorphonuclear leukocytes cells which expressed TGF-β: 45.8 ± 3.5%
[5]; [12]
  Percentage of mononuclear leukocytes cells expressing NF-kB: 41.6 ± 4.1%
  Percentage of mononuclear leukocytes cells expressing TGF-β: 41.7 ± 3.4%
  Percentage of polymorphonuclear leukocytes cells expressing NF-kB: 39.4 ± 4.2%
  Percentage of polymorphonuclear leukocytes cells expressing TGF-β: 39.7 ± 3.3%
[5]; [13]
  Percentage of mononuclear leukocytes cells which expressed NF-kB: 41.6 ± 4.2%
  Percentage of mononuclear leukocytes cells which expressed TGF-β: 42.7 ± 3.3%
  Percentage of polymorphonuclear leukocytes cells which expressed NF-kB: 35.5 ± 4.2%
  Percentage of polymorphonuclear leukocytes cells which expressed TGF-β: 38.7 ± 3.3%
[5]; [14]
  Percentage of mononuclear leukocytes cells which expressed NF-kB: 51.7 ± 5.3%
  Percentage of mononuclear leukocytes cells which expressed TGF-β: 49.6 ± 4.2%
  Percentage of polymorphonuclear leukocytes cells which expressed NF-kB: 56.6 ± 4.6%
  Percentage of polymorphonuclear leukocytes cells which expressed TGF-β: 54.5 ± 3.5%
[5]; [15]
  Percentage of mononuclear leukocytes cells which expressed TGF-β: 39.5 ± 4.5%
  Percentage of polymorphonuclear leukocytes cells which expressed NF-kB: 35.4 ± 4.2%
  Percentage of polymorphonuclear leukocytes cells which expressed TGF-β: 36.5 ± 3.1%
